Consider one compound from US20240279201A1, “DUAL WNT SIGNALING PATHWAY INHIBITORS AND AMPK ACTIVATORS FOR TREATMENTS OF DISEASE” (priority 2021, published 2024).

Entries after “also recorded” stand apart in the source; their conditions may differ.

One series is described as follows: Hygroscopicity. Type of series: physicochemical. As to conditions: HCl salt. An excerpt: This Example provides evidence to access the therapeutic potential of simultaneously targeting Wnt signaling and AMPK pathways as novel anti-CRC therapeutic strategy. […] In addition, the chemical structure of YA6060 contains multiple C—H bonds that are liable to P450-mediated oxidations in the liver. Therefore, novel YA6060 analogs with acceptable non-hygroscopicity along with excellent metabolic stability are highly desirable for its further development.
Non-hygroscopic salts of YA6060. YA6060 is an HCl salt with high hygroscopicity. YA6060 can readily absorb moisture from the environment that limits the stability and the further therapeutic application of the compound. Non-hygroscopic salts of YA6060 are generated by screening the anionic of the neutral amino parent YA6060 with a panel of acids that has been reported to form acceptably non-hygroscopic salts. Specific acids include valproic (1), maleic (2), tartaric (3), oxalic (4) and pamoic (5) acids, to get the corresponding salts.

A further series concerns HT29 cells. The series can be described thus: Viability of HT29 cells. The settings on record: Homo sapiens, HT-29, read-out: IC50, cell viability. The series is classed as cell-based.
The nature of another series: physchem. The protocol:
The ADMET and PK properties of YA6060 was determined.
Determination of physiochemical properties. The profiles of six selected analogs is estimated in silico, and selected Axin stabilizers are evaluated in in vitro assays: the aqueous solubility is determined using a multiscreen solubility filter plate (Millipore, Billerica, MA) coupled with LC-MS/MS, as performed for the already synthesized YA6060 analogs; the cell viability assays on selected analogs is measured using HEK293 cells; the intestinal permeability by determining the transport from the apical to the basolateral (A to B) in Caco-2 monolayers; the metabolic stability by incubating the compounds with mouse microsomes and liver tissue S9 fraction and analyzing by LC-MS/MS.

The test system of a further series is AMPK. Kind of series: Western blotting of phosphorylated AMPK in HEK293 cells. Type of series: cell-based. As to conditions: 100 nM, 24 h. As to the method: FIG. 6A-FIG. 6E illustrate the development of Axin stabilizers with dual activities of Wnt inhibition and AMPK activation. […] HEK293 cells were used. B&C: 100 nM compounds, 24 h. FIG. 6D is a table showing the activity profile of YA6060. F=bioavailability; soubility is aqueous solubility.
A dual-luciferase gene reporter assay was used to test inhibitory activities of new compounds on Wnt signaling. […] Axin is also reported to form a complex with AMPK and its upstream kinase LKB1 (FIG. 12A and FIG. 12B) to facilitate AMPK activation. Therefore, the effects of new compounds on AMPK was examined. […] YA6060 and its analogs had dual activities of potent Wnt signaling inhibition and AMPK activation, which were dependent on the levels of scaffolding protein Axin.

The nature of series [1]: Cytotoxicity (CC50) during the luciferase gene reporter assay. The settings on record: human, HEK293 cells; short treatment duration of the luciferase gene reporter assay. Type of series: cell-based.
Series [2] has as its system DMNA-induced liver fibrosis. Kind of series: Dimethylnitrosamine (DMNA) liver fibrosis mouse model. The series is classed as in vivo, C57BL/6 mice. The protocol: FIG. 4 illustrates that YA6060 protects liver from damage caused by dimethylnitrosamine (DMNA). Vehicle (top panels) or 10 mg/kg DMNA (bottom panels) was given on a Monday-Tuesday-Wednesday schedule each week; YA6060 or vehicle was given daily. After sacrifice of mice (6/group) at 4 weeks, paraffin sections were stained with Sirius Red to visualize collagen. […] Bars, 100 μm.
FIG. 10 is a graph of experimental data illustrating anti-fibrotic efficacy of YA6060 in mice. C57BL/6 mice received dimethylnitrosamine (DMNA, 10 mg/kg/d i.p. for 3d and then rest for 4d) or saline, with or without YA6060 (0.5 mg/kg/d) for 4 weeks. The fibrosis and inflammation biomarkers were examined by RT-PCR with the liver tissues.
FIG. 11A-FIG. 11C illustrate the effect of YA6060 on liver function in mice. C57BL/6 mice received dimethylnitrosamine (DMNA, 10 mg/kg/d i.p. for 3d and then rest for 4d) or saline, with or without YA6060 (0.5 mg/kg/d) for 4 weeks. The serum biochemistry was determined for alanine aminotransferase (ALT) and aspartate aminotransferase (AST) (FIG. 11A), albumin (FIG. 11B), and total bilirubin (FIG. 11C).
The effect of YA6060 treatment on the expression of fibrotic markers in LX-2 cells was examined. LX-2 cells were treated with TGF-beta to model fibrosis. Protein expression of collagen 1, vimentin, and alpha-SMA by Western blotting (FIG. 14A). mRNA expression of collagen 1, vimentin, and alpha-SMA by RT-PCR was examined (FIG. 14B). mRNA expression of genes associated with inflammation by RT-PCR was examined (FIG. 14C). The cells were treated with the indicated concentrations of YA6060 for 24 hours. *P<0.05, **P<0.01. The effect of YA6060 treatment on liver fibrosis in mice was also examined (FIG. 15). […]
Fibrosis in the liver tissues of the mice that received YA6060 treatment was quantified (FIG. 16). […] The collagen of liver tissues was stained by Sirius red (SR) and quantitated by Image J software. ***P<0.001. […]

The nature of series [3]: Toxicity evaluation in mice (oral gavage). The series is classed as in vivo. As to the method: FIG. 8 illustrates the preliminary toxicity evaluated for YA6060 in major mouse organs. […] 11 weeks C57BL/6 mice were treated for […]. The isolated tissues were stained by Haematoxylin and Eosin (H&E). The images were taken under an amplification of 20×.
Body weight change was measured over time in mice received YA6060. […]

Usually IC50 stands for the concentration at which inhibition is half-maximal. For orientation: aqueous solubility means how much of the substance goes into solution per volume. Lower therefore signals a poorly soluble substance. What is called solubility is the dissolved amount per volume that the medium holds. As usually defined, the CC50 is the concentration at which the toxic effect on the cells reaches its halfway point. A high value points to better tolerance by the cells.

`Cc1ccccc1-n1nnc(C(=O)Nc2ccc3cc(CN4CCNCC4)ccc3n2)c1C` [YA6060]: the hygroscopicity result in “Hygroscopicity” is listed as “highly hygroscopic”. The IC50 in the series on HT29 cells was 8.6 µM. For the same compound, in the series “physchem”, the aqueous solubility is greater than 75 mg/mL; the “increase in aqueous solubility from FX1128 and FX2065” value is recorded as “over 10,000 fold”. In “physchem” (water, aqueous solubility), this compound came in with a solubility greater than 78 mg/mL. Besides, the “levels of phosphorylated AMPK (p-AMPK)” value in the series with AMPK is reported as “significantly increased”. The compound further yielded a CC50 in series [1] greater than 92 µM. The “liver fibrosis (Sirius Red)” value in series [2] (0.5 or 5 mg/kg/day, 4 weeks) is recorded as “reduced dimethylnitrosamine (DMNA)-induced fibrosis; also recorded: strong protective effects”. Also, the “inflammation infiltration (H&E hepatic histology)” value in series [2] (DMNA 4 weeks) is “ameliorated”. In series [2] (YA6060 co-treatment with DMNA), the “liver function (serum ALT, AST, albumin, total bilirubin)” value is listed as “normal liver function”. This compound displayed an MTD at 21 days in series [3] (C57BL/6, mouse, in vivo, oral, 500 mg/kg, mice, single dose) greater than 500 mg/kg. Further, the “acute toxicity test (body weight change)” value in series [3] (mouse, in vivo, po) was “did not exhibit acute toxicity”. Also, in series [3] (oral gavage 500 mg/kg once, 21-day evaluation), the “toxicity / tolerability in mice, histology of major organs” value is “no obvious toxicity; also recorded: no noticeable toxic effects; also recorded: well tolerated; also recorded: No histological changes”. In series [3] (single dose of 500 mg/kg), the “safety margin over an efficacy dose (0.5 mg/kg) for liver fibrosis” value is reported as > 1,000 fold.
